Measured values taken from patent publication US20100093624A1, “PEPTIDE THERAPEUTICS THAT BIND VEGF AND METHODS OF USE THEREOF” (Cosmix Therapeutics LLC, priority 2008, published 2010).
Entries after “also recorded” stand apart in the source; their conditions may differ. Blank lines part the entries; values can stand above or below the molecule they belong to. Non-standard residues stand in square brackets, D forms with d. Residues, ends and D or L forms follow the SMILES beside them. No end group written: not given here. PEG = not defined here

Legend:
HUVEC cells = experiment: HUVEC cell-proliferation assay; assay type: cell-based, human; conditions: for inhibition of HUVEC growth: tritium-labeled thymidine
Source text: Initial investigation into the biological activity of the peptides involved use of a HUVEC cell-proliferation assay. A contractor (ReliaTech, Braunschweig, Germany) with considerable experience in this assay was employed to carry it out. ReliaTech's assay employed a radiation-based system to detect cell growth by monitoring DNA synthesis using tritium-labeled thymidine.
In this assay, pregrown, starved HUVEC cells proliferate in response to exposure to VEGF or bFGF. Inhibition of VEGF activity will result in a measurable decrease in cell proliferation. […] The effects seen for other peptide sequences were attributed to the DMSO content of their stock solutions (DMSO was required to solubilize all peptides in this assay except for 07-D60).

[1] = test system: VEGF-dependent cell growth; experiment: VEGF-dependent cell growth assay; assay type: cell-based
VEGF165 [2] = target: T1, VEGF165 (Homo sapiens, UniProt P15692); experiment: VEGF ELISA of biotin-tagged D-peptides; assay type: binding; conditions: VEGF165 coated wells, streptavidin/HRP detection
T1 construct: purchased
T1 sequence (P15692 27-191 isoform P15692-4 limits assumed): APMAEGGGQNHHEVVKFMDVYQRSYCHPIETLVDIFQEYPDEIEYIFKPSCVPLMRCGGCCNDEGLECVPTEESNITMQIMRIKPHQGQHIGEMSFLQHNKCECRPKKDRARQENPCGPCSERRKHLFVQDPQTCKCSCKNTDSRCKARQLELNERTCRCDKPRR
Description: An ELISA method was developed in which commercially available VEGF165 was coated into ELISA plate wells (MaxiSorb). Biotin-tagged D-peptides (or an anti-VEGF monoclonal antibody, BAF293, R & D Systems) were then added. After washing binding of peptides or antibody to VEGF was determined by treatment with a streptavidin/HRP conjugate which allows colorimetric detection of the presence of the biotin tagged peptides or antibody (see FIG. 3).

D-VEGF [3] = experiment: Equilibrium bead-binding assay; conditions: bead-bound peptide, silver-stained SDS-PAGE
Description: (§1) A quick, qualitative binding assay was devised in which biotin-tagged peptides are immobilized onto streptavidin-coated magnetic beads. The bead-bound peptides are then treated with VEGF (either synthetic or commercially available VEGF 165). After washing the beads are then boiled in denaturing buffer to release bound VEGF which is then detected by silver-stained SDS-PAGE gel (see FIG. 4).

L-VEGF = target: T2, L-VEGF (Homo sapiens, UniProt P15692); experiment: Equilibrium bead-binding assay; conditions: bead-bound peptide, silver-stained SDS-PAGE
T2 construct: VEGF (8-50)-thioester; VEGF (51-101)-thioester; made in house; host or cells: chemical synthesis (Boc SPPS, ligation of two peptides, oxidative folding)
T2 sequence (P15692 214-315): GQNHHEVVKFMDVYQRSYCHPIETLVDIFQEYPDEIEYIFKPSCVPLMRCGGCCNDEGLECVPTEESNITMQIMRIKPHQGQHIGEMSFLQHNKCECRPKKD
Description: as §1

VEGF165 [4] = target: T1, VEGF165; experiment: Equilibrium bead-binding assay; conditions: bead-bound peptide, silver-stained SDS-PAGE
Description: as §1

VEGF165 binding to KDR = target: T3, VEGF165 binding to KDR (Homo sapiens, UniProt P15692); experiment: Receptor ELISA (KDR)
T3 sequence (P15692 27-191 isoform P15692-4 limits assumed): T1 sequence (P15692 27-191 isoform P15692-4 limits assumed)

[5] = target: T4, rh-VEGF165 binding to Flt-1 (Homo sapiens, UniProt P15692); experiment: Receptor ELISA (Flt-1)
T4 sequence (P15692 27-191 isoform P15692-4 limits assumed): T1 sequence (P15692 27-191 isoform P15692-4 limits assumed)
Source text: VEGF acts on two distinct receptors in-vivo, Flt-1 (VEGFR1) and KDR (VEGFR2). The majority of pro-angiogenic signaling appears to be mediated by KDR. Flt-1 binds to VEGF isoforms with a higher affinity than KDR and may serve a largely regulatory role in vivo. […] These studies have been extended using ELISA assays on VEGF Flt-1 binding. In this experiment a soluble fusion of Flt-1 was coated onto Costar ELISA plates. After blocking (2% BSA), solutions of rh-VEGF165 containing serial dilutions of peptide test articles were added. Detection was accomplished using a biotinylated anti-VEGF antibody in combination with a streptavidin-HRP conjugate. The results of the Flt-1 assay are shown in FIG. 6 along with previous results from the analogous KDR assay for comparison.

D-VEGF [6] = experiment: ELISA of L-peptides from affinity maturation selection; assay type: binding; conditions: 25 nM, also 5M, 100 nM, 50 nM and 5 nM
Description: FIG. 15 depicts an ELISA analysis of peptides deriving from sequences of the affinity maturation mRNA display selection at 25 nM. […] Then the plates were incubated with 25 nM of peptides 07-007, 07-071 and 07-072 respectively in HBS buffer for one hour at room temperature followed by 4× washes with HBS buffer. Detection with Streptavidin-Peroxidase stained with o-Phenylendiamin and H2O2 for 3 minutes.
Then the plates were incubated with either 5 μM or 100 nM of peptides 07-007, 07-071 and 07-072 respectively in HBS buffer for one hour at room temperature followed by 4× washes with HBS buffer. Detection with Streptavidin-Peroxidase stained with o-Phenylendiamin and H2O2 for 3 minutes.
Then the plates were incubated either with 50 nM or 5 nM of peptides 07-007, 07-071 and 07-072 respectively in HBS buffer for one hour at room temperature followed by 4× washes with HBS buffer. Detection with Streptavidin-Peroxidase stained with o-Phenylendiamin and H2O2 for 3 minutes.
Then the plates were incubated with 25 nM of peptides 07-007, 07-071 and 07-072 respectively in HBS buffer for one hour at room temperature followed by 4× washes with HBS buffer.

[7] = target: D-VEGF (synthetic VEGF receptor binding domain, residues 8-109, made of D-amino acids) (Homo sapiens (Human)) (UniProt P15692); experiment: judged from ELISA signals on coated D-VEGF at 5 nM to 5 uM peptide; reference 07-007

Molecule: Avastin: Genentech's anti-VEGF antibody [reference compound]
inhibition of HUVEC growth (HUVEC cells): strong inhibition

Molecule: NALHWVCASNICWRSPWAGRLWGLVRL [Peptide G2306]
inhibition in a VEGF-dependent cell growth assay [1]: effective dose-dependent inhibition

binding to VEGF165 (VEGF165 [2]): bind tightly
binding to VEGF165 (VEGF165 [2]; listed as G2211/G2226): bind to VEGF165 selectively
Molecule: GVQEDVSSTLGSWVLLPFHRGTRLSVWVT (also: biotinylated form, place not given here) [G2211/2226]

Molecule: GNALHWVCASNICWRPPWAGRLWGLVRLT [Peptide 07-D60, a modification of G2257]
inhibition of HUVEC growth compared with Avastin (HUVEC cells; 10 micromolar peptide vs 67 nM Avastin): approaches that for 67 nM Avastin
inhibition of HUVEC growth (HUVEC cells): inhibit HUVEC growth in a dose dependent manner; also recorded: inhibit HUVEC cell growth; also recorded: block HUVEC growth in a dose-dependent manner

binding to D-VEGF (D-VEGF [3]): no detectable affinity
binding to commercially available VEGF 165 (VEGF165 [4]): found to bind
block of VEGF binding in the receptor ELISA (VEGF165 binding to KDR; receptor not specified): does not appear to block VEGF binding
Molecule: CC(C)C[C@@H](NC(=O)[C@@H](CCCNC(=N)N)NC(=O)[C@H](NC(=O)CNC(=O)[C@@H](CCCNC(=N)N)NC(=O)[C@@H](Cc1c[nH]cn1)NC(=O)[C@@H](Cc1ccccc1)NC(=O)[C@H]1CCCN1C(=O)[C@@H](CC(C)C)NC(=O)[C@@H](CC(C)C)NC(=O)[C@H](NC(=O)[C@@H](Cc1c[nH]c2ccccc12)NC(=O)[C@@H](CO)NC(=O)CNC(=O)[C@@H](CC(C)C)NC(=O)[C@H](NC(=O)[C@@H](CO)NC(=O)[C@@H](CO)NC(=O)[C@H](NC(=O)[C@@H](CC(=O)O)NC(=O)[C@@H](CCC(=O)O)NC(=O)[C@@H](CCC(N)=O)NC(=O)[C@H](NC(=O)CN)C(C)C)C(C)C)[C@H](C)O)C(C)C)[C@H](C)O)C(=O)N[C@H](CO)C(=O)N[C@@H](C(=O)N[C@H](Cc1c[nH]c2ccccc12)C(=O)N[C@@H](C(=O)N[C@@H](C(N)=O)[C@H](C)O)C(C)C)C(C)C [Peptide G2226] (H-G[dV][dQ][dE][dD][dV][dS][dS][dT][dL]G[dS][dW][dV][dL][dL][dP][dF][dH][dR]G[dT][dR][dL][dS][dV][dW][dV][dT]-NH2; N-terminus and C-terminus assumed)
binding to VEGF165 (VEGF165 [2]): bind tightly; also recorded: best affinity
activity in cell-based assays (HUVEC cells): does not appear to be active
binding to L-VEGF (L-VEGF): binds only to L-VEGF; also recorded: found to bind

Molecule: GNALHWVCASNICWRPPWAGRLWGLVRLT [Peptide G2257]
inhibition of VEGF binding to Flt-1 [5]: inhibition of VEGF binding; also recorded: inhibits binding
inhibition of VEGF binding to KDR (VEGF165 binding to KDR; receptor ELISA): inhibition of VEGF binding; also recorded: capable of inhibiting VEGF binding to KDR; also recorded: inhibits binding

Molecule: H2N-SGSSSGSGSGNALHWVCASNICWRTPWAGQLWRLVRLT-PEG-Bio (H-SGSSSGSGSGNALHWVCASNICWRTPWAGQLWRLVRLT-{PEG-biotin}; cysteine pairing not given here; reading uncertain) [Peptide 07-072]
affinity towards D-VEGF in comparison to the non-matured sequence deriving from G2306 (D-VEGF [6]): vast improvement

fold improvement of affinity (against the non-mutated sequence 07-007) [7]: > 10 >=fold
B1: Peptide 07-072 (L-form; variant carrying all three hot spot mutations) (peptide)
peptide: H-SGSSSGSGSGNALHWVCASNICWRTPWAGQLWRLVRLT-{PEG-biotin}
modifications: cysteine pairing not given here; reading uncertain
